In ChEMBL document CHEMBL4431295 (Medchemcomm, 2016):

Experiments:
[1] = tested on: MGC-803; assay: Antiproliferative activity against human MGC803 cells after 72 hrs by MTT assay; format: functional, cell-based; conditions: MGC-803, 72 h
[2] = tested on: HepG2; assay: Antiproliferative activity against human HepG2 cells after 72 hrs by MTT assay; format: functional, cell-based; conditions: HepG2, 72 h
[3] = tested on: SK-N-SH; assay: Antiproliferative activity against human SK-N-SH cells after 72 hrs by MTT assay; format: functional, cell-based
[4] = tested on: GES1; assay: Cytotoxicity against human GES-1 cells assessed as cell growth inhibition after 72 hrs by MTT assay; format: cell-based; conditions: GES1, 72 h

Compound | IC50 [1] [µM] | IC50 [2] [µM] | IC50 [3] [µM] | IC50 [4] [µM]
O=C(/C=C/c1ccc(Cl)cc1)c1ccc(OCc2cn(Cc3ccccc3)nn2)cc1 | 43.2 | 21 | 17.5 | 
O=C(/C=C/c1ccc(F)cc1)c1ccc(NCc2cn(Cc3ccccc3)nn2)cc1 | 40.2 | 38.8 | 42.4 | 
O=c1[nH]cc(F)c(=O)[nH]1 [FLUOROURACIL] | 7.22 | 10.3 | 10.3 | 7.22
CN1CCN(c2ccc(/C=C/C(=O)c3ccc(OCc4cn(Cc5ccccc5)nn4)cc3)cc2F)CC1 | 11.6 | 5.47 | 6.44 | 
O=C(/C=C/c1ccc([N+](=O)[O-])cc1)c1ccc(OCc2cn(Cc3ccccc3)nn2)cc1 | 29.8 | 24.4 | 11.6 | 
O=C(/C=C/c1cccnc1)c1ccc(NCc2cn(Cc3ccccc3)nn2)cc1 | 3.43 | 4.37 | 5.15 | 
O=C(/C=C/c1ccc(Cl)cc1Cl)c1ccc(OCc2cn(Cc3ccccc3)nn2)cc1 | > 64 | 27.9 | 36.4 | 
O=C(/C=C/c1ccccc1F)c1ccc(OCc2cn(Cc3ccccc3)nn2)cc1 | 50.6 | 18.4 | 28.6 | 
O=C(/C=C/c1cc(Cl)cc(Cl)c1)c1ccc(NCc2cn(Cc3ccccc3)nn2)cc1 | 16.8 | 23.4 | 20.5 | 
COc1cc(OC)c(/C=C/C(=O)c2ccc(NCc3cn(Cc4ccccc4)nn3)cc2)c(OC)c1 | 6.26 | 10.4 | 6.26 | 
O=C(/C=C/c1ccncc1)c1ccc(NCc2cn(Cc3ccccc3)nn2)cc1 | 17.1 | 7.02 | 5.23 | 
COc1ccccc1/C=C/C(=O)c1ccc(OCc2cn(Cc3ccccc3)nn2)cc1 | > 64 | 24.8 | 26.7 | 
O=C(/C=C/c1cccs1)c1ccc(NCc2cn(Cc3ccc(Cl)cc3)nn2)cc1 | 29.6 | 39.2 | 30.9 | 
